Data from ChEMBL document CHEMBL4371048, “Ganocapenoids A-D: Four new aromatic meroterpenoids from Ganoderma capense” (Bioorg Med Chem Lett, 2019).
Active and inactive are the calls of the source. No cut-off for these calls is given here.

Legend:
PC-12 = assay: Neurite-outgrowth promoting activity in NGF-differentiated rat PC12 cells assessed as cell differentiation at 10 uM after 72 hrs by phase contrast microscopic method (reference value: 4.72 +/- 1.18%); format: functional, cell-based
Acetylcholinesterase = Acetylcholinesterase (Homo sapiens, UniProt P22303); assay: Inhibition of AchE (unknown origin) using acetylthiocholine iodide as substrate preincubated for 20 mins followed by substrate addition and measured every 20 secs for 20 times by Ellman's assay
Sequence of Acetylcholinesterase (P22303 whole entry): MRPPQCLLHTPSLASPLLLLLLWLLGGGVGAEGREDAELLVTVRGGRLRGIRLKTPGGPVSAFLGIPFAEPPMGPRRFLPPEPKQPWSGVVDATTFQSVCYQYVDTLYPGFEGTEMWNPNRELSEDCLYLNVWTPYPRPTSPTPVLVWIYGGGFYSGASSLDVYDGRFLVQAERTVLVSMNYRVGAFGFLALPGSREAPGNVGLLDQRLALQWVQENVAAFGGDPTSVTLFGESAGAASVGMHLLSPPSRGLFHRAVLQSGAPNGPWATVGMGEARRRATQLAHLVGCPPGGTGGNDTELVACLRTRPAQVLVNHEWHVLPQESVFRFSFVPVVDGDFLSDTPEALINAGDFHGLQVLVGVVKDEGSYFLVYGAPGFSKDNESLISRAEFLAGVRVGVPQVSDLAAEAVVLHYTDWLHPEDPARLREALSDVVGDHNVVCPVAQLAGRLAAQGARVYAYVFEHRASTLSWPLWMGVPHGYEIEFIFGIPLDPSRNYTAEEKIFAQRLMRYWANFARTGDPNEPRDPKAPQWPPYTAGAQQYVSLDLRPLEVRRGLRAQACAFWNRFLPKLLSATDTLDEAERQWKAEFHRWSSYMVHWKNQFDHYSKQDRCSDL

HepG2 [1] = assay: Cytotoxicity against human HepG2 cells assessed as effect on cell viability at 10 to 160 uM after 48 hrs by MTT assay; format: cell-based; conditions: hepg2, 48 h
HepG2 [2] = assay: Reduction in lipid accumulation in human HepG2 cells after 24 hrs by Oil-red O staining based microscopic analysis; format: functional, cell-based
HepG2 [3] = assay: Decrease in SREBP2 mRNA level in human HepG2 cells at 20 to 40 uM after 24 hrs by qPCR analysis; format: functional, cell-based
HepG2 [4] = assay: Decrease in HMGCR mRNA level in human HepG2 cells at 20 to 40 uM after 24 hrs by qPCR analysis; format: functional, cell-based
HepG2 [5] = assay: Increase in LDLR expression in human HepG2 cells at 20 to 40 uM after 24 hrs by Western blot analysis; format: functional, cell-based
HepG2 [6] = assay: Decrease in HMGCR expression in human HepG2 cells at 20 to 40 uM after 24 hrs by Western blot analysis; format: functional, cell-based
HepG2 [7] = assay: Increase in PPARgamma mRNA level in human HepG2 cells at 20 to 40 uM after 24 hrs by qPCR analysis; format: functional, cell-based
HepG2 [8] = assay: Increase in ABCG1 mRNA level in human HepG2 cells at 20 to 40 uM after 24 hrs by qPCR analysis; format: functional, cell-based
HepG2 [9] = assay: Increase in LXRalpha mRNA level in human HepG2 cells at 20 to 40 uM after 24 hrs by qPCR analysis; format: functional, cell-based
HepG2 [10] = assay: Increase in PPARgamma expression in human HepG2 cells at 20 to 40 uM after 24 hrs by Western blot analysis; format: functional, cell-based
HepG2 [11] = assay: Increase in ABCG1 expression in human HepG2 cells at 20 to 40 uM after 24 hrs by Western blot analysis; format: functional, cell-based

For `C/C(=C\CCC1=C[C@H](c2cc(O)ccc2O)OC1=O)CCC=C(CO)CO`, the Activity (PC-12) was 6.72%.
In the case of `C/C(=C/CC[C@H](CO)c1cc2cc(O)c(O)cc2o1)CO`, the Activity (PC-12) is reported as 7.11% and the IC50 (Acetylcholinesterase) is reported as 28.6 µM.
For `C/C1=C\CCC2=CC(c3cc(O)ccc3O)(OC/C(CO)=C/CC1)OC2=O` (stereo not drawn), the Activity (HepG2 [1]) was “Non-Toxic”, the Activity (HepG2 [2]) was “Dose-dependent effect” and the Activity (HepG2 [3]) was “Active”. For the same compound, the Activity (HepG2 [4]) was “Active”, the Activity (HepG2 [5]) was “Active” and the Activity (HepG2 [6]) was “Active”. For the same compound, the Activity (HepG2 [7]) was “Active”, the Activity (HepG2 [8]) was “Active” and the Activity (HepG2 [9]) was “Active”. For the same compound, the Activity (HepG2 [10]) was “Active” and the Activity (HepG2 [11]) was “Active”.
For `C/C(=C/CCC1=C[C@@H](c2cc(O)ccc2O)OC1=O)CO`, the Activity (PC-12) was 12.31%.
`COC(=O)/C(=C\C(=O)c1cc(O)ccc1O)CC/C=C(\C)CCC=C(CO)CO` was tested, and the Activity (PC-12) was 5.32%.
`COC(=O)/C(=C\C(=O)c1cc(O)ccc1O)CC/C=C(\C)CCC=C(C)C` showed an Activity (PC-12) of 10.95% and an IC50 (Acetylcholinesterase) of 8.2 µM.
Work on `O=C(O)CC1(CC(=O)c2cc(O)ccc2O)C=C(CO)CCC1` (stereo not drawn) yielded an Activity (PC-12) of 5.97% and an IC50 (Acetylcholinesterase) of 26 µM.
`C/C(=C\CCC1=C[C@@H](c2cc(O)ccc2O)OC1=O)CCC=C(CO)CO` gave an Activity (PC-12) of 6.19%.
Work on `C/C(=C/CCC1=C[C@H](c2cc(O)ccc2O)OC1=O)CO` yielded an Activity (PC-12) of 11.67%.
For `CC1(C)Oc2ccc(O)cc2C2=C1CCC(C(=O)O)=C2`, the Activity (PC-12) was 4.89%.
